What was measured:
[1] = test system: activated partial thromboplastin time (aPTT), ecarin clotting time, and thrombin clotting time; assay: Coagulation tests
[2] = test system: patients with atrial fibrillation
Experimental: PETRO-Ex began while the PETRO study was ongoing and investigators were initially kept blinded to patient treatment group until PETRO was completed. Unblinding investigators to patient treatment was possible thereafter.
Data were summarized descriptively; no hypothesis was to be tested. Events were analyzed on the basis of the treatment at onset. Incidences were reported as number of patients with events as well as normalized to 100 patient-years on the respective treatment.
Written, informed consent was obtained from all patients.
Patients who completed PETRO on 50 mg b.i.d. were switched to 150 mg q.d. upon entry in the PETRO-Ex study (N=93 patients). […] Patients who were down titrated to 50 mg q.d. based on a glomerular filtration rate ≦50 mL/min during PETRO were excluded from the long-term trial; patients down-titrated in other dose levels remained on the q.d. treatment at that dose.
The total exposure reflects both trials, PETRO and PETRO-Ex, together.

[3] = test system: patients with atrial fibrillation at risk of stroke; assay: RELY Clinical Trial, dabigatran 110 mg or 150 mg twice daily versus warfarin; type: in vivo
From the text: The primary study outcome was stroke or systemic embolism. The primary safety outcome was major hemorrhage. Secondary outcomes were stroke, systemic embolism and death. […] All other bleeding was considered minor.
All analyses were based on intention-to-treat.

[4] = test system: patients with chronic atrial fibrillation; assay: PETRO phase 2 12-week dose finding study; type: in vivo, human; details: 12 weeks
From the text: Primary endpoints were bleeding events and changes in D-dimer. […] Minor bleeding was dose related.

[5] = of the 16 on treatment cases with AST or ALT >3×ULN

## [H]/N=C(/N)c1ccc(NCc2nc3cc(C(=O)N(CCC(=O)O)c4ccccn4)ccc3n2C)cc1 [dabigatran]
[1]
  Prolongation of aPTT, ecarin clotting time, and thrombin clotting time: dose dependent prolongation
[2]; all doses
  Fatal bleeding events, rate: 0.5 % per year
[2]; [5]
  LFT abnormality resolved after stopping, number of cases: 5
  LFT abnormality resolved with continuation, number of cases: 10
[2]; of the 18 cases with AST or ALT >3×ULN
  Cases with an explanatory clinical diagnosis, number: 9
[3]; 110 mg b.i.d.
  Rate of hemorrhagic stroke: 0.12 % per year
  Rate of net benefit-risk outcome (major vascular events, major bleeding and death): 7.37 % per year
  Stroke, systemic embolism, pulmonary embolism, myocardial infarction death or major bleed (net benefit), Rate: 7.37 /100 Person Years
[3]; 110 mg vs. Warfarin
  First Hospitalization, RR: 0.92
  Non-disabling Stroke Modified Rankin 0-2, RR: 0.87
  Stroke or systemic embolism, RR: 0.91
  Stroke, Hemorrhagic, RR: 0.31
  Stroke, RR: 0.92
  Stroke, systemic embolism, pulmonary embolism, myocardial infarction death or major bleed (net benefit), RR: 0.92
[3]; 150 mg b.i.d.
  Rate of hemorrhagic stroke: 0.10 % per year
  Rate of net benefit-risk outcome (major vascular events, major bleeding and death): 7.22 % per year
  Stroke, systemic embolism, pulmonary embolism, myocardial infarction death or major bleed (net benefit), Rate: 7.22 /100 Person Years
[3]; 150 mg vs. 110 mg
  Stroke, Ischemic or Unspecified, RR: 0.68
  Stroke, RR: 0.70
  Stroke, systemic embolism, pulmonary embolism, myocardial infarction death or major bleed (net benefit), RR: 0.98
[3]; 150 mg vs. Warfarin
  First Hospitalization, RR: 0.97
  Non-disabling Stroke Modified Rankin 0-2, RR: 0.62
  Stroke or systemic embolism, RR: 0.66
  Stroke, Hemorrhagic, RR: 0.26
  Stroke, Ischemic or Unspecified, RR: 0.76
  Stroke, RR: 0.64
  Stroke, systemic embolism, pulmonary embolism, myocardial infarction death or major bleed (net benefit), RR: 0.90
[4]
  Change in D-dimer levels: comparable to warfarin
